Reference: US20240269139A1, “COMPOUNDS FOR TARGETED PROTEIN DEGRADATION OF KINASES” (DANA-FARBER CANCER INSTITUTE, INC., priority 2020, published 2024)
Where “and” joins values, the source holds several entries; their conditions need not be identical. Equal entries are not always repeated. Where two headings read alike, the source gives them in different places.

Tests used:
Type in all cases: cell-based
[1] = molecular target: T1, protein kinases (human kinome) (Homo sapiens, UniProt Q53H12); conditions: direction down
T1 sequence (Q53H12 1-422): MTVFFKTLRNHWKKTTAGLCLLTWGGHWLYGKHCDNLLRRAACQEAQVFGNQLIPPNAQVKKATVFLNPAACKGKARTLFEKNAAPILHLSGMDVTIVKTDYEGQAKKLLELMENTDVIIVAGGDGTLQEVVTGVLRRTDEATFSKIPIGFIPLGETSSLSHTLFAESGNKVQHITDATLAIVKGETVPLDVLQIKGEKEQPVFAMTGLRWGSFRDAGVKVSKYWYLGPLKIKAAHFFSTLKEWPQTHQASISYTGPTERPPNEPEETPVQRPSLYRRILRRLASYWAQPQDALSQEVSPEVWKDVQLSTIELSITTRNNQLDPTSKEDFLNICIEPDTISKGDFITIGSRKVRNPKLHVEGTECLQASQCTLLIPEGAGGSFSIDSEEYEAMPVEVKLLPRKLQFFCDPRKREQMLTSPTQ

[2] = molecular target: protein kinases (human kinome) (Homo sapiens, UniProt Q15118); conditions: PDK1 Q15118
Sequence of protein kinases (human kinome) (Homo sapiens, UniProt Q15118) (Q15118 29-436): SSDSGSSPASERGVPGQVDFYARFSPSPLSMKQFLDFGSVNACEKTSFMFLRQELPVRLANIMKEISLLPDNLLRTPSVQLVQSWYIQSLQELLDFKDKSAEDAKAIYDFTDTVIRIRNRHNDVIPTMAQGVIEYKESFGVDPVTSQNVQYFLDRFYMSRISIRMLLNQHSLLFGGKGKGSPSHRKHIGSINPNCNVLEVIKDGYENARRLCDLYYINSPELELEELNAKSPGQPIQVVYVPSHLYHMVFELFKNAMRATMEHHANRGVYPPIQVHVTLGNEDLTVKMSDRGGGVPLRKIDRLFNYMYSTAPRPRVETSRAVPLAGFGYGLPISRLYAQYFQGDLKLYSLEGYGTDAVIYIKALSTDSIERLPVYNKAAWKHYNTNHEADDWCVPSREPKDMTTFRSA

[3] = molecular target: protein kinases (human kinome) (Homo sapiens, UniProt P42684)
Sequence of protein kinases (human kinome) (Homo sapiens, UniProt P42684) (P42684 whole entry): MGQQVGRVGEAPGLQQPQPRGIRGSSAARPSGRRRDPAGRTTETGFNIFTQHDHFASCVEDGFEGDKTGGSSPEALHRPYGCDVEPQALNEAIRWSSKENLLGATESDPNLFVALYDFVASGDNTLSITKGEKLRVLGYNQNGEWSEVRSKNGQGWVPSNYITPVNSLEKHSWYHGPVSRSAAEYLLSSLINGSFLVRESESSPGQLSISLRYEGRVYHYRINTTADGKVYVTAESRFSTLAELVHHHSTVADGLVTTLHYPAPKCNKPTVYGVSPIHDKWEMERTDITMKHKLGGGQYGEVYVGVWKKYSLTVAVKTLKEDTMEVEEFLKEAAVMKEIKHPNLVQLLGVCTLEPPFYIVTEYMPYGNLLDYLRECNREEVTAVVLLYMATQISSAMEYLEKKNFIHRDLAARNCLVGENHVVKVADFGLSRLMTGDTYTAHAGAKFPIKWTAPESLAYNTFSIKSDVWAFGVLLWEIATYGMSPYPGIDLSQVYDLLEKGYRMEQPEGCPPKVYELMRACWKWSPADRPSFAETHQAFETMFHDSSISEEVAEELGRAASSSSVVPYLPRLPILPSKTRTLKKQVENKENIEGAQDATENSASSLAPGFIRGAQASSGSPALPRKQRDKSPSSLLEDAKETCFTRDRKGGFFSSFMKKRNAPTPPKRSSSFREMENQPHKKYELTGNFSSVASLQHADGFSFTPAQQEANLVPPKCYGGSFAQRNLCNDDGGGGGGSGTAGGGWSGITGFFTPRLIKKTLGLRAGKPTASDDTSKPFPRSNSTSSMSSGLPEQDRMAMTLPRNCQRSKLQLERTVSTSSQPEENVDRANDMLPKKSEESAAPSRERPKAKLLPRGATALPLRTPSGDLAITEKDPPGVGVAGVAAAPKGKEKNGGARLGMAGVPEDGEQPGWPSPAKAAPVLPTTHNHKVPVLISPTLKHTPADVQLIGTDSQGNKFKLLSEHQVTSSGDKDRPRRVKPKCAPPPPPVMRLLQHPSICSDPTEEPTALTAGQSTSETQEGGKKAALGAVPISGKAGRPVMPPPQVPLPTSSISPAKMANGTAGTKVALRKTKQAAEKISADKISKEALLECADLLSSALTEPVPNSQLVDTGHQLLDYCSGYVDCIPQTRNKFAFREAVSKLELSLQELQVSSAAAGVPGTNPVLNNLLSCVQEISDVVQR

[4] = molecular target: protein kinases (human kinome) (Homo sapiens, UniProt Q00537); conditions: for logFC of CDK17: Accession Q00537; for logFC CDK17 (Q00537): direction of change down
Sequence of protein kinases (human kinome) (Homo sapiens, UniProt Q00537) (Q00537 whole entry): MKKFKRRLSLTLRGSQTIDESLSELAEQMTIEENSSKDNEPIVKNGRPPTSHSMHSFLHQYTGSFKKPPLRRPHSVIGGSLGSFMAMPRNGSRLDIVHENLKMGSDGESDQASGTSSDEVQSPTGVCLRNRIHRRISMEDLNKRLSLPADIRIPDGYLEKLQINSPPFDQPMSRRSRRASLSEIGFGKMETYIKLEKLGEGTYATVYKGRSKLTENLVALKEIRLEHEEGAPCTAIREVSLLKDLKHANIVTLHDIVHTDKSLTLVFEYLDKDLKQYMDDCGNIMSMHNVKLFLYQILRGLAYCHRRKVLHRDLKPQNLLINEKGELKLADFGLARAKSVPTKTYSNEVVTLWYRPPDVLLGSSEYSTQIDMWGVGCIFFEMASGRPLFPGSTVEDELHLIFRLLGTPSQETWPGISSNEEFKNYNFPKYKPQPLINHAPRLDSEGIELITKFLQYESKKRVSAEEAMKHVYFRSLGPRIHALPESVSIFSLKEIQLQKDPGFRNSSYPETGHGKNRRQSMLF

[5] = molecular target: protein kinases (human kinome) (Homo sapiens, UniProt P24941)
[6] = molecular target: protein kinases (human kinome) (Homo sapiens, UniProt P41240); conditions: experiment wp147, 4 uM
Sequence of protein kinases (human kinome) (Homo sapiens, UniProt P41240) (P41240 whole entry): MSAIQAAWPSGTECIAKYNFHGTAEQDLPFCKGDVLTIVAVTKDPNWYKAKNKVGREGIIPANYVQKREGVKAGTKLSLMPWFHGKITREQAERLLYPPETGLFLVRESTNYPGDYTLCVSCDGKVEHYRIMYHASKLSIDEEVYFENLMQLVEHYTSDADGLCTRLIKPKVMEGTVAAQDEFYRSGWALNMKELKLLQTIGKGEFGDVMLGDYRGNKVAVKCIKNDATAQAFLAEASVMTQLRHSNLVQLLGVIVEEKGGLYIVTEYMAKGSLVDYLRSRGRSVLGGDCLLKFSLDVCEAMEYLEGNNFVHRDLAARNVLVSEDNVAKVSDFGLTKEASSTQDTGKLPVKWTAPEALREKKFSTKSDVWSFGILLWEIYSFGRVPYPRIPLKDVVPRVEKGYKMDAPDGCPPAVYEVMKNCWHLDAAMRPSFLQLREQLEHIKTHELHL

## CN(C)C(=O)c1cc2cnc(Nc3ccc(N4CCN(CCCCNC(=O)COc5cccc6c5C(=O)N(C5CCC(=O)NC5=O)C6=O)CC4)cn3)nc2n1C1CCCC1 (stereo not shown) [BSJ.04.132]
[1]; Experiment wp084
  logFC AGK (Q53H12): −0.6709
[2]; experiment wp084
  logFC: −0.7569
  logFC PDK1: −0.7569

## O=C(COc1cccc2c1C(=O)N(C1CCC(=O)NC1=O)C2=O)NCCCCCCCC(=O)NC1(c2ccc(-c3nc4ccn5c(=O)[nH]nc5c4cc3-c3ccccc3)cc2)CCC1 (stereo not shown) [INY.01.140.1]
[1]; Experiment wp081
  logFC AGK (Q53H12): −0.4936
[2]; experiment wp081
  logFC: −0.4328
  logFC PDK1: −0.4328

## C=CCn1c(=O)c2cnc(Nc3ccc(N4CCN(CCCNc5cccc6c5C(=O)N(C5CCC(=O)NC5=O)C6=O)CC4)cc3)nc2n1-c1cccc(C(C)(C)O)n1 (stereo not shown) [ZNL.02.096]
[1]; Experiment wp056
  logFC AGK (Q53H12): −0.5514
[2]; experiment wp056
  logFC: −0.3685
  logFC PDK1: −0.3685

## Cc1ccc(C(=O)Nc2ccc(CN3CCN(CCCOCCOCCOCCNC(=O)COc4cccc5c4C(=O)N(C4CCC(=O)NC4=O)C5=O)CC3)c(C(F)(F)F)c2)cc1C#Cc1cnc2cccnn12 (stereo not shown) [SB1.G.187]
[3]; ABL2 (P42684) protein abundance, degrader vs DMSO, down
  logFC: −0.6252 and −0.6455
[3]; Experiment wp107
  logFC ABL2 (P42684): −0.6455
[3]; experiment wp056
  logFC ABL2 (P42684): −0.6252
[1]; Experiment wp056
  logFC AGK (Q53H12): −0.5707
[2]; experiment wp056
  logFC: −0.4134
  logFC PDK1: −0.4134
[4]; experiment wp172
  logFC of CDK17: −0.3562
  logFC CDK17 (Q00537): −0.3562

## CC(C)(C)c1nc(-c2cccc(NS(=O)(=O)c3c(F)cccc3F)c2F)c(-c2ccnc(NCCOCCNC(=O)CCOCCOCCNc3cccc4c3C(=O)N(C3CCC(=O)NC3=O)C4=O)n2)s1 (stereo not shown) [DD.03.106]
[5]; Experiment wp147, 2 uM
  logFC CDK2 (P24941-1): −0.4932
[5]; Experiment wp147, 4 uM
  logFC CDK2 (P24941-1): −0.5248
[5]; experiment wp137
  logFC CDK2 (P24941-1): −0.3437
[5]; experiment wp137, direction of change down
  logFC CDK2 (P24941-1): −0.3437
[5]; experiment wp147, 1 uM
  logFC CDK2 (P24941-1): −0.3285
[5]; experiment wp147, 1 uM, direction of change down
  logFC CDK2 (P24941-1): −0.3285
[5]; experiment wp147, 2 uM, direction of change down
  logFC CDK2 (P24941-1): −0.4932
[5]; experiment wp147, 4 uM, direction of change down
  logFC CDK2 (P24941-1): −0.5248
[1]; Experiment wp147, 2 uM
  logFC AGK (Q53H12): −0.346
[1]; Experiment wp147, 4 uM
  logFC AGK (Q53H12): −0.9499
[6]; Accession P41240
  logFC of CSK: −0.5149
[6]; CSK (P41240), down
  logFC CSK: −0.5149
[2]; experiment wp147, 1 uM
  logFC: −0.3363
  logFC PDK1: −0.3363
[2]; experiment wp147, 4 uM
  logFC: −0.6592
  logFC PDK1: −0.6592
[4]; experiment wp047
  logFC of CDK17: −0.72
  logFC CDK17 (Q00537): −0.72
[4]; experiment wp147, 1 uM
  logFC of CDK17: −0.7615
  logFC CDK17 (Q00537): −0.7615
[4]; experiment wp147, 4 uM
  logFC of CDK17: −0.6232
  logFC CDK17 (Q00537): −0.6232
[4]; experiment wp147, 2 uM
  logFC CDK17 (Q00537): −0.8288

## CC(=O)c1c(C)c2cnc(Nc3ccc(N4CCN(CCOCCOCCOCCNC(=O)COc5cccc6c5C(=O)N(C5CCC(=O)NC5=O)C6=O)CC4)cn3)nc2n(C2CCCC2)c1=O (stereo not shown) [BSJ.03.123]
[1]; Experiment wp084
  logFC AGK (Q53H12): −0.6506
[2]; experiment wp084
  logFC: −0.5666
  logFC PDK1: −0.5666

## CC(C)(C)c1nc(-c2cccc(NS(=O)(=O)c3c(F)cccc3F)c2F)c(-c2ccnc(NCCOCCNC(=O)CCOCCOCCNc3cccc4c3CN(C3CCC(=O)NC3=O)C4=O)n2)s1 (stereo not shown) [DD.03.107]
[1]; Experiment wp147, 1 uM
  logFC AGK (Q53H12): −0.7983
[1]; Experiment wp147, 2 uM
  logFC AGK (Q53H12): −0.8655
[1]; Experiment wp147, 4 uM
  logFC AGK (Q53H12): −1.343
[2]; experiment wp147, 1 uM
  logFC: −0.4722
  logFC PDK1: −0.4722
[2]; experiment wp147, 2 uM
  logFC: −0.4534
  logFC PDK1: −0.4534
[2]; experiment wp147, 4 uM
  logFC: −1.108
  logFC PDK1: −1.108
